From ChEMBL document CHEMBL1147551, “Synthesis and inhibition of Src kinase activity by 7-ethenyl and 7-ethynyl-4-anilino-3-quinolinecarbonitriles” (Bioorg Med Chem Lett, 2004)

Experiments:
[1] = organism: Rattus norvegicus; assay: Inhibitory activity against Src-dependent cell proliferation assay using rat fibroblasts
[2] = molecular target: Proto-oncogene tyrosine-protein kinase Src (Homo sapiens, UniProt P12931); assay: Enzyme inhibitory activity against recombinant human Src protein tyrosine kinase
[3] = organism: Rattus norvegicus; assay: Inhibitory activity against Src-dependent cell proliferation assay, using rat fibroblasts; type: functional

Chain of Proto-oncogene tyrosine-protein kinase Src (P12931 2-536 limits assumed): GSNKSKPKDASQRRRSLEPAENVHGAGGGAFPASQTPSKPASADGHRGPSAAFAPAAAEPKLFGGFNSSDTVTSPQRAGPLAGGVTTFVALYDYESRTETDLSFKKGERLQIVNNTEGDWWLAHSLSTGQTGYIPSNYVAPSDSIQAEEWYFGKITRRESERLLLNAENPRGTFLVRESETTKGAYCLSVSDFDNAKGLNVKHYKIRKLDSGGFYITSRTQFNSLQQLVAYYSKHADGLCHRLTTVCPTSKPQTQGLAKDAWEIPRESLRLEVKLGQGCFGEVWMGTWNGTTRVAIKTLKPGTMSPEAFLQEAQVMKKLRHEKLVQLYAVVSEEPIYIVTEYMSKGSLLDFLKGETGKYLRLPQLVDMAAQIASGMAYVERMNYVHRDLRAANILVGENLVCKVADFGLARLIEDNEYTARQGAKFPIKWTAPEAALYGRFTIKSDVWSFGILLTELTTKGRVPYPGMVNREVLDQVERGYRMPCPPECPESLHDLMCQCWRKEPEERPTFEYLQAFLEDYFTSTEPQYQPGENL

| SMILES | IC50 [2] [nM] | IC50 [1] [nM] | Inhibition [3] [%] |
| --- | --- | --- | --- |
| COc1cc(Nc2c(C#N)cnc3cc(/C=C/c4ccccc4)c(OC)cc23)c(Cl)cc1Cl | 65 | 1500 |  |
| COc1cc(Nc2c(C#N)cnc3cc(/C=C/c4ccc(-c5ccccc5)cc4)ccc23)c(Cl)cc1Cl | 2300 | > 10000 |  |
| COc1cc(Nc2c(C#N)cnc3cc(/C=C/c4ccncc4)c(OC)cc23)c(Cl)cc1Cl |  | 80 |  |
| N#Cc1cnc2cc(/C=C/c3ccncc3)ccc2c1Nc1ccc(Cl)cc1Cl |  | 1200 |  |
| CCOc1cc(Nc2c(C#N)cnc3cc(/C=C/c4ccncc4)ccc23)c(Cl)cc1Cl | 3100 | > 10000 |  |
| COc1cc(Nc2c(C#N)cnc3cc(C#Cc4cccnc4)c(OC)cc23)c(Cl)cc1Cl |  | 270 |  |
| COc1cc(Nc2c(C#N)cnc3cc(C#Cc4cccnc4)ccc23)c(Cl)cc1Cl |  | 650 |  |
| COc1cc(Nc2c(C#N)cnc3cc(CCc4ccncc4)ccc23)c(Cl)cc1Cl |  | > 10000 |  |
| COc1cc(Nc2c(C#N)cnc3cc(/C=C/c4cccnc4)c(OC)cc23)c(Cl)cc1Cl | 8.4 | 140 |  |
| COc1cc(Nc2c(C#N)cnc3cc(/C=C/c4ccc5ccccc5c4)ccc23)c(Cl)cc1Cl | 320 | > 10000 |  |
| N#Cc1cnc2cc(/C=C/c3ccncc3)ccc2c1Oc1ccc(Cl)cc1Cl | 380 | 7200 |  |
| COc1cc(Nc2c(C#N)cnc3cc(/C=C/c4ccncc4)ccc23)c(Cl)cc1Cl |  | 230 |  |
| O=C(O)c1cnc2cc(/C=C/c3ccncc3)ccc2c1Nc1ccc(Cl)cc1Cl | 1600 | > 10000 |  |
| CCOC(=O)c1cnc2cc(/C=C/c3ccncc3)ccc2c1Nc1ccc(Cl)cc1Cl | 12000 | > 10000 |  |
| C=Cc1ccc2c(Nc3cc(OC)c(Cl)cc3Cl)c(C#N)cnc2c1 | 97 | 9300 |  |

Continued, in another order:

| IC50 [2] [nM] | SMILES | IC50 [1] [nM] | Inhibition [3] [%] |
| --- | --- | --- | --- |
| 83 | COc1cc(Nc2c(C#N)cnc3cc(C#Cc4ccncc4)ccc23)c(Cl)cc1Cl | 2700 |  |
| 420 | COc1cc(Nc2c(C#N)cnc3cc(C#Cc4ccc(-c5ccccc5)cc4)ccc23)c(Cl)cc1Cl | > 10000 |  |
| 57 | COc1cc(Nc2c(C#N)cnc3cc(C#Cc4ccccc4)c(OC)cc23)c(Cl)cc1Cl | 3000 |  |
| 530 | COc1cc(Nc2c(C#N)cnc3cc(C#Cc4ccccn4)ccc23)c(Cl)cc1Cl | > 10000 |  |
| 15 | COc1cc(Nc2c(C#N)cnc3cc(/C=C/c4cccnc4)ccc23)c(Cl)cc1Cl | 230 |  |
| 19 | COc1cc(Nc2c(C#N)cnc3cc(/C=C/c4ccccn4)ccc23)c(Cl)cc1Cl |  | 50 |
| 180 | COc1cc(Nc2c(C#N)cnc3cc(/C=C/c4ccccc4)ccc23)c(Cl)cc1Cl | 2700 |  |
| 320 | COc1cc(Nc2c(C#N)cnc3cc(C#Cc4ccccc4)ccc23)c(Cl)cc1Cl | > 10000 |  |
| 1000 | N#Cc1cnc2cc(/C=C/c3ccncc3)ccc2c1NCc1ccc(Cl)cc1Cl | > 10000 |  |
| 200 | N#Cc1cnc2cc(C#Cc3cccnc3)ccc2c1Nc1ccc(Cl)cc1Cl | 3900 |  |
